Converted amounts (≈) assume the structure as drawn.
What was measured:
Assay type in all cases: functional
Candida tropicalis = assay: Antifungal activity against Candida tropicalis by microbroth dilution method
Cryptococcus neoformans = assay: Antifungal activity against Cryptococcus neoformans after 72 hrs by microbroth dilution method
Candida parapsilosis = assay: Antifungal activity against Candida parapsilosis by microbroth dilution method; conditions: Lodderomyces parapsilosis
Candida albicans [1] = assay: Antifungal activity against Candida albicans Y0109 after 24 hrs by microbroth dilution method; conditions: Y0109, 24 h
Aspergillus fumigatus = assay: Antifungal activity against Aspergillus fumigatus by microbroth dilution method
Trichophyton rubrum = assay: Antifungal activity against Trichophyton rubrum by microbroth dilution method
Candida albicans [2] = assay: Antifungal activity against Candida albicans SC5314 after 24 hrs by microbroth dilution method; conditions: SC5314, 24 h
Kluyveromyces marxianus = assay: Antifungal activity against Candida kefyr by microbroth dilution method

Row | SMILES | MIC80 (Candida tropicalis) | MIC80 (Cryptococcus neoformans) | MIC80 (Candida parapsilosis) | MIC80 (Candida albicans [1]) | MIC80 (Aspergillus fumigatus) | MIC80 (Trichophyton rubrum) | MIC80 (Candida albicans [2]) | MIC80 (Kluyveromyces marxianus)
1 | OC(Cc1cn(Cc2ccc(Cl)cc2)nn1)(Cn1cncn1)c1ccc(F)cc1F (stereo not given) | 0.5 µg/mL (≈ 1.16 µM) | 0.25 µg/mL (≈ 0.58 µM) | 0.125 µg/mL (≈ 0.29 µM) | 0.0625 µg/mL (≈ 0.145 µM) | 4 µg/mL (≈ 9.28 µM) | 0.125 µg/mL (≈ 0.29 µM) | < 0.125 µg/mL | 0.0625 µg/mL (≈ 0.145 µM)
2 | OC(Cc1cn(Cc2ccc(Br)cc2)nn1)(Cn1cncn1)c1ccc(F)cc1F (stereo not given) | 0.25 µg/mL (≈ 0.526 µM) | 0.25 µg/mL (≈ 0.526 µM) | 0.125 µg/mL (≈ 0.263 µM) | 0.0625 µg/mL (≈ 0.131 µM) | 8 µg/mL (≈ 16.8 µM) | 0.125 µg/mL (≈ 0.263 µM) | 0.0625 µg/mL (≈ 0.131 µM) | 0.0625 µg/mL (≈ 0.131 µM)
3 | Cc1ccccc1Cn1cc(CC(O)(Cn2cncn2)c2ccc(F)cc2F)nn1 (stereo not given) | 0.125 µg/mL (≈ 0.305 µM) | 0.125 µg/mL (≈ 0.305 µM) | 0.0625 µg/mL (≈ 0.152 µM) | 0.0156 µg/mL (≈ 0.038 µM) | 2 µg/mL (≈ 4.87 µM) | 0.0625 µg/mL (≈ 0.152 µM) | 0.0625 µg/mL (≈ 0.152 µM) | 0.0039 µg/mL (≈ 0.0095 µM)
4 | OC(Cc1cn(Cc2ccccc2Cl)nn1)(Cn1cncn1)c1ccc(F)cc1F (stereo not given) | 0.0625 µg/mL (≈ 0.145 µM) | 0.25 µg/mL (≈ 0.58 µM) | 0.0625 µg/mL (≈ 0.145 µM) | 0.0625 µg/mL (≈ 0.145 µM) | 16 µg/mL (≈ 37.1 µM) | 0.25 µg/mL (≈ 0.58 µM) | 0.0625 µg/mL (≈ 0.145 µM) | 0.125 µg/mL (≈ 0.29 µM)
5 | OC(Cn1cncn1)(Cn1cncn1)c1ccc(F)cc1F [FLUCONAZOLE] | 1 µg/mL (≈ 3.27 µM) | 1 µg/mL (≈ 3.27 µM) | 0.5 µg/mL (≈ 1.63 µM) | 0.5 µg/mL (≈ 1.63 µM) | 64 µg/mL (≈ 209 µM) | 1 µg/mL (≈ 3.27 µM) | 0.5 µg/mL (≈ 1.63 µM) | 4 µg/mL (≈ 13.1 µM)
6 | CCC(C)n1ncn(-c2ccc(N3CCN(c4ccc(OCC5COC(Cn6cncn6)(c6ccc(Cl)cc6Cl)O5)cc4)CC3)cc2)c1=O (stereo not given) [ITRACONAZOLE] | 0.0625 µg/mL (≈ 0.0886 µM) | 0.0625 µg/mL (≈ 0.0886 µM) | 0.0625 µg/mL (≈ 0.0886 µM) | 0.0625 µg/mL (≈ 0.0886 µM) | 0.0625 µg/mL (≈ 0.0886 µM) | 0.0625 µg/mL (≈ 0.0886 µM) | 0.0625 µg/mL (≈ 0.0886 µM) | 0.125 µg/mL (≈ 0.177 µM)
7 | O=[N+]([O-])c1cccc(Cn2cc(CC(O)(Cn3cncn3)c3ccc(F)cc3F)nn2)c1 (stereo not given) | 0.125 µg/mL (≈ 0.283 µM) | 0.5 µg/mL (≈ 1.13 µM) | < 0.25 µg/mL | 0.0625 µg/mL (≈ 0.142 µM) | 32 µg/mL (≈ 72.5 µM) | 0.25 µg/mL (≈ 0.566 µM) | < 0.125 µg/mL | 0.0625 µg/mL (≈ 0.142 µM)
8 | OC(Cc1cn(Cc2cccc(F)c2)nn1)(Cn1cncn1)c1ccc(F)cc1F (stereo not given) | 0.25 µg/mL (≈ 0.603 µM) | 0.25 µg/mL (≈ 0.603 µM) | 0.125 µg/mL (≈ 0.302 µM) | 0.0625 µg/mL (≈ 0.151 µM) | 32 µg/mL (≈ 77.2 µM) | 0.25 µg/mL (≈ 0.603 µM) | < 0.125 µg/mL | 0.0625 µg/mL (≈ 0.151 µM)
9 | OC(Cc1cn(Cc2ccccc2Br)nn1)(Cn1cncn1)c1ccc(F)cc1F (stereo not given) | 0.0625 µg/mL (≈ 0.131 µM) | 0.25 µg/mL (≈ 0.526 µM) | 0.0625 µg/mL (≈ 0.131 µM) | 0.0625 µg/mL (≈ 0.131 µM) | 4 µg/mL (≈ 8.42 µM) | 0.25 µg/mL (≈ 0.526 µM) | 0.0625 µg/mL (≈ 0.131 µM) | 0.0625 µg/mL (≈ 0.131 µM)
10 | COc1ccc(Cn2cc(CC(O)(Cn3cncn3)c3ccc(F)cc3F)nn2)cc1OC (stereo not given) | 0.125 µg/mL (≈ 0.274 µM) | 0.0625 µg/mL (≈ 0.137 µM) | 0.0625 µg/mL (≈ 0.137 µM) | 0.0156 µg/mL (≈ 0.0342 µM) | 2 µg/mL (≈ 4.38 µM) | 0.0625 µg/mL (≈ 0.137 µM) | 0.0625 µg/mL (≈ 0.137 µM) | 0.0625 µg/mL (≈ 0.137 µM)
11 | C[C@@H](c1ncncc1F)[C@](O)(Cn1cncn1)c1ccc(F)cc1F [VORICONAZOLE] | 0.0039 µg/mL (≈ 0.0112 µM) | 0.0039 µg/mL (≈ 0.0112 µM) | 0.0039 µg/mL (≈ 0.0112 µM) | 0.0625 µg/mL (≈ 0.179 µM) | 0.0156 µg/mL (≈ 0.0447 µM) | 0.0156 µg/mL (≈ 0.0447 µM) | 0.0625 µg/mL (≈ 0.179 µM) | 0.0625 µg/mL (≈ 0.179 µM)
12 | OC(Cc1cn(Cc2ccccc2F)nn1)(Cn1cncn1)c1ccc(F)cc1F (stereo not given) | 0.0625 µg/mL (≈ 0.151 µM) | 0.125 µg/mL (≈ 0.302 µM) | 0.125 µg/mL (≈ 0.302 µM) | 0.0625 µg/mL (≈ 0.151 µM) | 16 µg/mL (≈ 38.6 µM) | 0.125 µg/mL (≈ 0.302 µM) | 0.0625 µg/mL (≈ 0.151 µM) | 0.0625 µg/mL (≈ 0.151 µM)
13 | COc1ccc(OC)c(Cn2cc(CC(O)(Cn3cncn3)c3ccc(F)cc3F)nn2)c1 (stereo not given) | 0.125 µg/mL (≈ 0.274 µM) | 0.0625 µg/mL (≈ 0.137 µM) | 0.0625 µg/mL (≈ 0.137 µM) | 0.0156 µg/mL (≈ 0.0342 µM) | 2 µg/mL (≈ 4.38 µM) | 0.0625 µg/mL (≈ 0.137 µM) | 0.0625 µg/mL (≈ 0.137 µM) | 0.0625 µg/mL (≈ 0.137 µM)
14 | O=[N+]([O-])c1ccc(Cn2cc(CC(O)(Cn3cncn3)c3ccc(F)cc3F)nn2)cc1 (stereo not given) | 0.125 µg/mL (≈ 0.283 µM) | 0.5 µg/mL (≈ 1.13 µM) | 0.25 µg/mL (≈ 0.566 µM) | 0.0625 µg/mL (≈ 0.142 µM) | 16 µg/mL (≈ 36.2 µM) | 0.25 µg/mL (≈ 0.566 µM) | < 0.125 µg/mL | 0.0625 µg/mL (≈ 0.142 µM)
15 | CC(=O)N1CCN(c2ccc(OCC3COC(Cn4ccnc4)(c4ccc(Cl)cc4Cl)O3)cc2)CC1 (stereo not given) [KETOCONAZOLE] | 0.0039 µg/mL (≈ 0.00734 µM) | 0.0156 µg/mL (≈ 0.0294 µM) | 0.0039 µg/mL (≈ 0.00734 µM) | 0.0625 µg/mL (≈ 0.118 µM) | 0.0156 µg/mL (≈ 0.0294 µM) | 0.0156 µg/mL (≈ 0.0294 µM) | 0.0625 µg/mL (≈ 0.118 µM) | 0.0625 µg/mL (≈ 0.118 µM)

— ChEMBL document CHEMBL2016536, “New triazole derivatives as antifungal agents: synthesis via click reaction, in vitro evaluation and molecular docking studies” (2012)
